Test results taken from paper PMC10791089, “Identification and evaluation of antiviral activity of novel compounds targeting SARS-CoV-2 virus by enzymatic and antiviral assays, and computational analysis” (Journal of Enzyme Inhibition and Medicinal Chemistry, 2024).
Values joined by “and” are separate entries in the source; they are usually repeats but may differ in a detail not shown here. Identical values can stand only once. Like-named read-outs stand apart in the source and are kept apart here.

Tests used:
SARS-CoV-2 M^pro = SARS-CoV-2 M^pro (Severe acute respiratory syndrome coronavirus 2, UniProt P0DTD1); assay: biochemical
SARS-CoV-2 PL^pro [1] = target: T1, SARS-CoV-2 PL^pro (Severe acute respiratory syndrome coronavirus 2, UniProt P0DTD1); assay: biochemical; format: biochemical
SARS-CoV-2 PL^pro [2] = target: T1, SARS-CoV-2 PL^pro; assay: biochemical
[3] = test system: SARS-CoV-2 strain Slovakia/SK-BMC5/2020; assay: microbe, parasite or virus in culture; format: cell-based
[4] = test system: VERO-E6, Caco-2, PK-15, and A549 cells; assay: Cell viability MTT assay, averaged over screened cell lines; conditions: concentration causing >40% reduction in number of viable cells, 72 h, 0.5-30 µM, n/o = no cytotoxic effect observed within the concentration range
VERO-E6 cells = assay: Cell viability MTT assay in VERO-E6 cells; format: cell-based, African Green Monkey; conditions: VERO-E6 cell line, 72 h
PL^pro = conditions: read-out: IC50 deubiquitinase activity; drug repurposing study; cited from earlier work
[5] = test system: severe COVID-19 and hospitalisation; set-up: method as in PMID 34726479; conditions: treatment started during the first days after appearance of symptoms; cited from earlier work
[6] = protease activity, 4 h at room temperature, 1 mM DTT, read-out: IC50 Enzyme assay PA M^pro
[7] = protease activity, 1 h at 37 °C, 1 mM DTT, read-out: IC50 Enzyme assay PA PL^pro
[8] = deubiquitinase activity, 1 h at 37 °C, 1 mM DTT, read-out: IC50 Enzyme assay DUA PL^pro
[9] = Severe acute respiratory syndrome coronavirus 2, Vero C1008, 72 h, read-out: EC50 Plaque reduction assay
[10] = Severe acute respiratory syndrome coronavirus 2, Vero C1008, VERO-E6 cells, MOI 1.0, 72 h, 0.1-30 µM, n/o = no antiviral effect observed within the concentration range, read-out: EC50 Plaque reduction assay
[11] = read-out: IC50 Enzyme assay PA PL^pro, protease activity, 1 h at 37 °C, 1 mM DTT
[12] = Severe acute respiratory syndrome coronavirus 2, Vero C1008, read-out: EC50 from the sigmoidal model (Figure 3 B1-B5)
[13] = VERO-E6 cells, MOI 1.0, 72 h, 0.1-30 µM, n/o = no antiviral effect observed within the concentration range

N#CSc1cc(SC#N)c(N)nc1N [Compound C4, PR-619, reference compound]
IC50 (SARS-CoV-2 M^pro; [6]): 0.7 µM | IC50 (SARS-CoV-2 PL^pro [1]; [7]): 0.1 µM | IC50 (SARS-CoV-2 PL^pro [2]; [8]): 0.2 µM | EC50 [3, 9]: 9 µM | CTE Cell viability MTT assay [4]: >10.0 µM | CTE Cell viability MTT assay ([4]; listed as PR-619): 5 to 10 µM

CCC(CC)COC(=O)[C@H](C)N[P@](=O)(OC[C@H]1O[C@@](C#N)(c2ccc3c(N)ncnn23)[C@H](O)[C@@H]1O)Oc1ccccc1 [Compound C8, Remdesivir, reference compound]
EC50 [3, 10]: 1.8 µM | CTE Cell viability MTT assay [4]: n/o

Cc1ccc(N)cc1C(=O)N[C@H](C)c1cccc2ccccc12 [Compound C9, GRL0617, reference compound]
EC50 ([3]; VERO-E6 cells, MOI 1.0, 72 h, 0.1-30 µM, n/o = no antiviral effect observed within the concentration range, read-out: EC50 Plaque reduction assay): 2.5 µM

CC(C)C[C@@H](NC(=O)OCc1ccccc1)C(=O)N[C@@H](CC1CCNC1=O)C(O)S(=O)(=O)O (stereo partly drawn) [Compound C10, GC376, reference compound]
EC50 [3, 10]: 1 µM

O=C1/C(=C/c2ccc([N+](=O)[O-])cc2)CC(O)C/C1=C\c1ccc([N+](=O)[O-])cc1 (stereo not drawn) [Compound T97]
IC50 (SARS-CoV-2 M^pro): > 100 µM | IC50 (SARS-CoV-2 PL^pro [1]): > 100 µM | IC50 (SARS-CoV-2 PL^pro [2]): > 100 µM | CTE in VERO-E6 cells (VERO-E6 cells): approximately 5 µM | CTE Cell viability MTT assay [4]: >5.0 µM

NCCCNC(=O)OC1C/C(=C\c2ccc([N+](=O)[O-])cc2)C(=O)/C(=C/c2ccc([N+](=O)[O-])cc2)C1 (stereo not drawn) [Compound T98]
IC50 (SARS-CoV-2 M^pro): > 100 µM | IC50 (SARS-CoV-2 PL^pro [1]; [11]): < 100 µM | EC50 [3, 9]: 6.7 µM | EC50 [3, 12]: 6.69 µM | CTE in VERO-E6 cells (VERO-E6 cells): > 15 µM and 10 to 15 µM | CTE Cell viability MTT assay [4]: >15.0 to 30.0 µM

CC(C)(C)OC(=O)NCCCC[C@H](NC(=O)OC1C/C(=C\c2ccc([N+](=O)[O-])cc2)C(=O)/C(=C/c2ccc([N+](=O)[O-])cc2)C1)C(=O)O (stereo partly drawn) [Compound T105]
IC50 (SARS-CoV-2 M^pro): > 100 µM | IC50 (SARS-CoV-2 PL^pro [1]): > 100 µM | IC50 (SARS-CoV-2 PL^pro [2]): > 100 µM | EC50 [3, 9]: > 30 µM | EC50 Plaque reduction assay [3, 13]: no antiviral effect was observed and n/o | CTE Cell viability MTT assay [4]: no observed cytotoxic effect and n/o

CC(C)C[C@H](NC(=O)OC1C/C(=C\c2ccc([N+](=O)[O-])cc2)C(=O)/C(=C/c2ccc([N+](=O)[O-])cc2)C1)C(N)=O (stereo partly drawn) [Compound T120]
IC50 (SARS-CoV-2 M^pro): > 100 µM | IC50 (SARS-CoV-2 PL^pro [1]; [11]): < 100 µM | EC50 [3, 9]: 3.4 µM | EC50 [3, 12]: 3.43 µM | CTE in VERO-E6 cells (VERO-E6 cells): > 10 µM and 10 to 15 µM | CTE Cell viability MTT assay [4]: >10.0 µM

NC(=O)[C@H](Cc1ccccc1)NC(=O)OC1C/C(=C\c2ccc([N+](=O)[O-])cc2)C(=O)/C(=C/c2ccc([N+](=O)[O-])cc2)C1 (stereo partly drawn) [Compound T121]
IC50 (SARS-CoV-2 M^pro): > 100 µM | IC50 (SARS-CoV-2 PL^pro [1]): > 100 µM | IC50 (SARS-CoV-2 PL^pro [2]): > 100 µM | EC50 [3, 9]: 8.4 µM | EC50 [3, 12]: 8.39 µM | CTE in VERO-E6 cells (VERO-E6 cells): 10 to 15 µM | CTE Cell viability MTT assay [4]: >10.0 to 15.0 µM

NCCCNC(=O)OC1C/C(=C\c2ccc([N+](=O)[O-])cc2)C(O)/C(=C/c2ccc([N+](=O)[O-])cc2)C1 (stereo not drawn) [Compound T122]
IC50 (SARS-CoV-2 M^pro): > 100 µM | IC50 (SARS-CoV-2 PL^pro [1]; [11]): < 100 µM | EC50 [3, 9]: 17 µM | EC50 [3, 12]: 17 µM | CTE in VERO-E6 cells (VERO-E6 cells): > 30 µM | CTE Cell viability MTT assay [4]: >30.0 µM

COc1cc(/C=C2\CC(OC(=O)NCCCN)C/C(=C\c3ccc(O)c(OC)c3)C2=O)ccc1O (stereo not drawn) [Compound T123]
IC50 (SARS-CoV-2 M^pro; [6]): > 100 µM | IC50 (SARS-CoV-2 PL^pro [1]; [7]): 60 µM | IC50 (SARS-CoV-2 PL^pro [2]; [8]): 75 µM | EC50 Plaque reduction assay [3, 13]: no antiviral effect was observed and did not show any inhibitory efficiency and n/o

CC(C)C[C@H](N)C(=O)NCCCNC(=O)OC1C/C(=C\c2ccc([N+](=O)[O-])cc2)C(=O)/C(=C/c2ccc([N+](=O)[O-])cc2)C1 (stereo partly drawn) [Compound T124]
IC50 (SARS-CoV-2 M^pro): > 100 µM | IC50 (SARS-CoV-2 PL^pro [1]): > 100 µM | IC50 (SARS-CoV-2 PL^pro [2]): > 100 µM | EC50 [3, 9]: 15.9 µM | EC50 [3, 12]: 15.9 µM | CTE in VERO-E6 cells (VERO-E6 cells): > 30 µM | CTE Cell viability MTT assay [4]: >30.0 µM

O=[N+]([O-])c1ccc(/C=C2\CC(O)C/C(=C\c3ccc([N+](=O)[O-])cc3)C2O)cc1 (stereo not drawn) [Compound T125]
IC50 (SARS-CoV-2 M^pro): > 100 µM | IC50 (SARS-CoV-2 PL^pro [1]; [11]): < 100 µM | EC50 Plaque reduction assay [3, 13]: no antiviral effect was observed and did not show any inhibitory efficiency and no antiviral activity and n/o | CTE Cell viability MTT assay [4]: no observed cytotoxic effect and n/o

Cc1ccc(/C=C2\CNC/C(=C\c3ccc(C)cc3)C2=O)cc1 [NSC63283]
IC50 (PL^pro): > 100 µM

O=C1/C(=C/c2ccc([N+](=O)[O-])cc2)CNC/C1=C\c1ccc([N+](=O)[O-])cc1 [RA-9, reference compound]
EC50 [3, 9]: 12.1 µM | CTE Cell viability MTT assay [4]: >30.0 µM

N[C@@H](Cc1ccccc1)C(=O)N1C/C(=C\c2ccc(Cl)c(Cl)c2)C(=O)/C(=C/c2ccc(Cl)c(Cl)c2)C1 [RA-190, reference compound]
IC50 (SARS-CoV-2 M^pro; [6]): > 100 µM | IC50 (SARS-CoV-2 PL^pro [1]; [7]): > 100 µM | IC50 (SARS-CoV-2 PL^pro [2]; [8]): > 100 µM | EC50 [3, 10]: 3 µM

CC(C)(C)[C@H](NC(=O)C(F)(F)F)C(=O)N1C[C@H]2[C@@H]([C@H]1C(=O)N[C@H](C#N)C[C@@H]1CCNC1=O)C2(C)C [nirmatrelvir]
protection against severe COVID-19 and hospitalisation [5]: approximately 90%
